Data on one compound can be found in patent US4778796A, “ω-(3-pyridyl)alkenamide derivatives and anti-allergenic pharmaceutical compositions containing same” (Dainippon Pharmaceutical Co., Ltd., priority 1985, dated 1988).

Where a name gives a salt, the structure may show the parent alone. Read-outs that look alike come from different tables or passages of the source.

As usually defined, the LD50 is the dose expected to kill half of the subjects tested. Lower therefore signals greater toxicity. As usually defined, the IC50 is the concentration that gives 50% inhibition. What is called ED50 is the midpoint of the dose-response relation. Broadly, the inhibition is the share of the control response that was lost under treatment.

Data set [1] can be described thus: Acute lethal toxicity in mice. The note with it: mouse, in vivo; oral, mortality observed for two weeks. The procedure:
Test 3 Acute lethal toxicity in mice
Test compounds were suspended in a 0.5% aqueous tragacanth solution. LD50 values were calculated according to the method of Litchfield and Wilcoxon [cf. J. Pharmacol. Exp. Ther., 96, 99 (1949)].

The test system of data set [2] is histamine-induced contraction of isolated guinea pig trachea. In words: Inhibitory effect on histamine-induced contraction of isolated guinea pig trachea. Further details: species or system guinea pig (male Hartley). The following applies: 3×10^-5 M histamine; isolated guinea pig trachea; read-out: Anti-hist. activity IC50. The procedure:
(2) Inhibitory effect on histamine-induced contraction of isolated guinea pig trachea:
Male Hartley guinea pigs (400-700 g) were used. Zig-zag strips of guinea pig trachea were prepared by the method of Emmerson and Mackay [cf. J. Pharm. […] Dose-response curves for histamine were obtained before and 5 minutes after the addition of test compounds. Inhibitory rate was calculated from contraction heights in 3×10^-5 M of histamine without vs. with test compound.

The subject of data set [3] is experimental asthma. In words: Inhibitory effect on experimental asthma in rats. The note with it: Rattus norvegicus, po. The format is in vivo, rat (male Wistar). The procedure: (2) Inhibitory effect on experimental asthma in rats: This test was carried out by the method of Church and Miller [cf. Brit. […] Male Wistar rats (200-250 g) were sensitized by an intraperitoneal injection of 1 ml of a 0.01% egg albumin solution containing 1 mg of Al(OH)3. Two weeks later, the rats were anesthetized with 1.3 g/kg of urethane. The trachea and jugular vein were cannulated. Respiratory volume and velocity were measured by attaching one end of the tracheal cannula to respiratory volume meter connected to a carrier amplifier and an integrator. The rats were challenged by an intravenous injection of 4 mg/kg of egg ablumin 30 minutes after the anesthesia. Test compounds, dissolved or suspended in a 0.5% aqueous tragacanth solution, were administered orally 1 hour before the antigen challenge. Each group of 4 rats was used for each dose of the test compound. ED50 values were calculated from the best fit linear regression line of inhibitory rates of respiratory volume and velocity in each dose.

For data set [4], the system named is contact hypersensitivity to oxazolone. The data set is described as follows: Inhibitory effect on contact hypersensitivity to oxazolone in mice. The format is in vivo, mouse (male ICR). The following applies: topical, 1.0 mg/ear; 24 hours after challenge. As to the method:
(3) Inhibitory effect on contact hypersensitivity to oxazolone in mice:
This test was carried out by the method of Evans et al. [cf. Brit.
Male ICR mice (18-20 g) were used. The abdominal region of the mice was carefully clipped with an electric clipper, and 0.1 ml of a 0.5 w/v % oxazolone solution in absolute ethanol was gently rubbed into the clipped area. Five days after the sensitization 20 μl of a 0.5 w/v % oxazolone solution in acetone or chloroform, or the solution containing test compound was applied to both sides of the right ear. The left ear was not treated. Twenty-four hours after the challenge, the animals were sacrificed with diethyl ether. The circular parts (5.5 mm in diameter) of both ears were removed by punching and then weighed. The inhibitory rate was determined by comparing the ear swelling of the mice treated with oxazolone containing test compound with that of the mice treated with oxazolone. Each group of 8 mice was used for each dose of the test compound.

In data set [5] the test system is human basophils. In words: Inhibitory effect on histamine release induced by anti-human IgE antibody from healthy human basophils. The format is cell-based. The note with it: Homo sapiens, read-out: Histamine release inhibit. IC50. As to the method: (3) Inhibitory effect on histamine release induced by anti-human IgE antibody from healthy human basophils:
Basophils from nonallergic volunteers were collected by the method of Levy and Osler [cf. […] The cells were washed once with a cold Tris-A buffer at pH 7.4 (25 mM Tris, 120 mM NaCl, 5 mM KCl and 0.03% human serum albumin) containing 4 mM EDTA and twice with Tris-A buffer. After washing, the cells were resuspended at 5-10×10^6 leukocytes/ml in Tris-ACM buffer at pH 7.6 (Tris-A buffer, 0.6 mM CaCl2 and 1 mM MgCl2). One ml of the cell suspension was incubated with 0.1 ml of a solution of test compound or vehicle for 15 minutes at 37° C., and then for further 45 minutes with 0.1 ml of anti-human IgE antibody. After ice-cooling, the reaction mixtures were centrifuged at 1,200 rpm for 8 minutes at 4° C. The supernatant fluids and the cells were analysed separately for histamine by a modification of the spectrophotofluorometric technique of Shore et al. [cf. […] Histamine release rate was calculated according to the following equation. [formula] A: total histamine (supernatant+cell) B: supernatant histamine without anti-IgE
C: supernatant histamine with anti-IgE
Inhibitory rate was calculated from histamine release rates without vs. with test compound.

The test system of data set [6] is passive cutaneous anaphylaxis (PCA). The data set is described as follows: Inhibitory effect on passive cutaneous anaphylaxis (PCA) in rats. The format is in vivo, rat (male Wistar). The following applies: Rattus norvegicus, po, read-out: Inhibition (PCA in rats). The procedure:
(1) Inhibitory effect on passive cutaneous anaphylaxis (PCA) in rats:
This test was carried out by the method of Perper et al. [cf.
Male Wistar rats (130-180 g) were injected with 0.1 ml of a dilute solution of mouse antiserum to egg albumin in two sites of the shaved ventral skin. Forty-eight hours later each rat was challenged by an intravenous injection of 2 mg of the antigen together with 1 ml of a 0.5% Evan's blue saline solution. The rats were sacrificed 30 minutes after the challenge. The area of the blueing lesions was measured on the undersurface of the skin. The average value of the two lesions of each rat was regarded as the response of the rat. Test compounds in a dose of 20 mg/kg, dissolved or suspended in a 0.5% aqueous tragacanth solution, were administered orally 1 hour before the antigen challenge. The inhibitory rate was determined by comparing the responses of the rats given each test compound with those of the rats given only a 0.5% aqueous tragacanth solution. Each group of 3 rats was used for each test compound. The mouse antiserum to egg albumin was produced by the method of Levine and Vaz [cf. Int. Arch. Allergy Appl.

Data set [7] deals with T1, 5-lipoxygenase (Cavia porcellus, UniProt A0A286X958).
T1 construct: The cytosol fraction of peritoneal exudate cells from male Hartley guinea pigs (400-700 g) was used as 5-lipoxygenase; from tissue; host or cells: cytosol fraction of peritoneal exudate cells (leukocytes) of male Hartley guinea pigs
T1 sequence (A0A286X958 1-674): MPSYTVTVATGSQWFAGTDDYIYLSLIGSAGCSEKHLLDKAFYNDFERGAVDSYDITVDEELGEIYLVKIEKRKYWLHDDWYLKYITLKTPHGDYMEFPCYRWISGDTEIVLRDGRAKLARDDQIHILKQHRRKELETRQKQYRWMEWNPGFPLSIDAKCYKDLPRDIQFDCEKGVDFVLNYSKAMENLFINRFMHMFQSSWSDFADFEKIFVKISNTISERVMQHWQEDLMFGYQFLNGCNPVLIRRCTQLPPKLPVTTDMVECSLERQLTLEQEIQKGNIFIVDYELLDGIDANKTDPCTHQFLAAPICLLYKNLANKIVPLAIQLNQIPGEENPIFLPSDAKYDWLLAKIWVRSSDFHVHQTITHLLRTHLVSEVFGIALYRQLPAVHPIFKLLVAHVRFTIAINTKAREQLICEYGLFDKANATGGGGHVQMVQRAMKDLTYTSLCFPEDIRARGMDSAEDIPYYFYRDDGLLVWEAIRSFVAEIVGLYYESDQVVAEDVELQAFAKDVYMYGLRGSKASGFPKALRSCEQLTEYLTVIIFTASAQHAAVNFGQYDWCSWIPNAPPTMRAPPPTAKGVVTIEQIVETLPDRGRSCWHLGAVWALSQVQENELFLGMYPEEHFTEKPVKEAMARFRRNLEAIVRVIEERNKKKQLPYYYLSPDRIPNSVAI
The data set is described as follows: Inhibitory effect on 5-lipoxygenase activity in guinea pig leukocytes. The format is biochemical, guinea pig (male Hartley). The following applies: 10^-4 M. As to the method:
(1) Inhibitory effect on 5-lipoxygenase activity in guinea pig leukocytes:
This test was carried out by the method of Miyamoto and Obata (cf. "Perspectives in Prostaglandin Research," ed. by Y. Shiokawa et al., Excepta Medica, Amsterdam-Oxford-Princeton, 1983, p78) with minor modifications.
The cytosol fraction of peritoneal exudate cells from male Hartley guinea pigs (400-700 g) was used as 5-lipoxygenase. The standard reaction mixture contained 50 mM potassium phosphate buffer, 1 mM CaCl2, 1 mM glutathione, 1 mM adenosine triphosphoric acid, 10 μM indomethacin and the enzyme. The mixture was incubated for 5 minutes at 30° C. after addition of [1-^14 C]arachidonic acid (0.02 μCi). The reaction was terminated by addition of 0.6 ml of the cold organic solvents (diethyl ether/methanol/0.2M citric acid=30/4/1). The organic layer (300 μl) was applied onto a precoated silica gel 60F254 glass plate (E. Merck, West Germany). Radioactivity on the plate was monitored by a radiochromatogram scanner (Packard, U.S.A.). 5-Lipoxygenase activity was calculated according to the following equation. [formula]
The effects of the test compounds were expressed in terms of percent inhibition.

In turn, `CN1CCC(=C2c3ccccc3CC(=O)c3sccc32)CC1` [Ketotifen fumarate, reference compound] came in with an LD50 at 336 h in data set [1] of 537 mg/kg. The half-maximal inhibitory concentration (IC50) in data set [2] was 2.9 nM; in data set [5], > 100000 nM. For the same compound, the ED50 in data set [3] (read-out: ED50, respiratory velocity) worked out at 20.5 mg/kg; in data set [3] (read-out: ED50, respiratory volume), 22.6 mg/kg. Further, the “% Inhibition of ear swelling” value in data set [4] is recorded as 49.0%. In addition, the inhibition in vivo at 20 mg/kg in data set [6] amounted to 54.7%. The “5-lipoxygenase inhibiting activity (in words)” value in data set [7] is “did not exhibit any significant inhibiting activity”. In addition, the inhibition at 100 µM in data set [7] (read-out: 5-Lipoxygenase inhibit. activity, Inhibition) was found to be 11.5%.
